From patent US4562205A, “Derivatives of 2-aminoacetic acid” (Continental Pharma Inc., priority 1983, dated 1985)
Like-named read-outs stand apart in the source and are kept apart here.

Legend:
[1] = test system: convulsions induced by bicuculline in mice; experiment: Anti-convulsant activity against bicuculline-induced convulsions (protection against tonic extension); format: in vivo, mice (CDl-Charles River); conditions: for potency compared with reference (in words): ED50 comparison, bicuculline test; for ED50: Mus musculus, 3 h, read-out: ED50 (dose providing protection against tonic extension of 50% of the animals); for % of protection (against tonic extension): 10 mg/kg, 20 mice
Method: The compounds tested, 2-pentanoylaminoacetic acid (compound I), sodium 2-pentanoylaminoacetate (compound II) or sodium valproate (a generally accepted reference substance), have been administered orally to 20 mice (CDl-Charles River) at a dose of 10 mg/kg as a suspension in a 1% tragacanth gum mucilage. Administration has been done by means of an intragastric tube.
Three hours later, bicuculline has been administered at a dose of 0,7 mg/kg by intravenous injection in the lateral vein of the tail.
The anti-convulsant activity of the compounds has been further evaluated, using the technique described hereinabove, by examining the effect at different doses. From the experimental data, the ED50 value has been calculated, i.e. the effective dose (mg/kg) providing protection against tonic extension of 50% of the animals.

in vivo [2] = conditions: mouse, in vivo, po
Excerpt: (§1) In further pharmacological tests the acute toxicity and the effect on behaviour have been examined. The effect on behaviour has been studied using a method derived from the one of S. Irvin [Gordon Res. Conf. on Medicinal Chemistry, p. 1933 (1959) as cited by R. A. Turner (Screening Methods in Pharmacology, Acad. Press, 1965, Chapter III, pages 22-34)].
(§2) No further testing has been made when a dose has been reached at which no abnormal behaviour or toxicity has been observed. […] The deaths were registered for 14 days following the treatment.

mice [3] = experiment: in vivo; conditions: oral, mice
Excerpt: as §1, §2

in vivo [4] = conditions: mouse, in vivo, po; remark: listed apart in the source
Excerpt: as §1, §2
(§3) The LD50 value, i.e. the dose expressed in mg/kg which is lethal for 50% of the animals, has been calculated according to the Litchfield and Wilcoxon method [J. Pharmacol. Exp. Ther., 96, 99 (1949)].

mice [5] = experiment: in vivo; conditions: mice; for deaths: 3000 mg/kg per os
Excerpt: as §1, §2, §3

[6] = oral, bicuculline 0,7 mg/kg i.v. three hours later
[7] = oral, different doses, bicuculline 0,7 mg/kg i.v. three hours later, mice

| SMILES | potency compared with reference (in words) ([1]; mice) | ED50 ([1]; po) [mg/kg] | % of protection (against tonic extension) [1, 6] [%] | MTD at 336 h (in vivo [2]) [mg/kg] | toxicity and effect on behaviour (in words) (mice [3]) | TI-B (MTD/ED50) (mice [3]; therapeutical index) | LD50 at 336 h (in vivo [4]) [mg/kg] | deaths (mice [5]) | TI-A (LD50/ED50) (mice [5]; therapeutical index, oral) | ED50 [1, 7] [mg/kg] | anti-convulsant activity (in words) ([1]; convulsions induced by bicuculline in mice) | selectivity ratio (in vivo [2]; TI-B (MTD/ED50), therapeutical index, mice) |
| --- | --- | --- | --- | --- | --- | --- | --- | --- | --- | --- | --- | --- |
| CCCCC(=O)NCC(=O)[O-].[Na+] | more potent | 9.2 | 55 | ≥ 3000 | very weak | > 326 | > 3000 | no deaths | > 326 |  |  |  |
| CCCCC(=O)NCC(=O)O [compound I, 2-pentanoylaminoacetic acid] | more potent |  | 55 | ≥ 3000 | very weak |  | > 3000 | no deaths |  | 10.7 | potent anti-convulsant activity | > 280 |
| CCCC(CCC)C(=O)[O-].[Na+] [sodium valproate, reference compound] |  |  | 40 |  |  |  |  |  |  | 29 |  |  |
